# Target: T1, glucocorticoid receptor (Homo sapiens, UniProt P04150)
# T1 construct: endogenous in cells
# T1 sequence (P04150 1-777): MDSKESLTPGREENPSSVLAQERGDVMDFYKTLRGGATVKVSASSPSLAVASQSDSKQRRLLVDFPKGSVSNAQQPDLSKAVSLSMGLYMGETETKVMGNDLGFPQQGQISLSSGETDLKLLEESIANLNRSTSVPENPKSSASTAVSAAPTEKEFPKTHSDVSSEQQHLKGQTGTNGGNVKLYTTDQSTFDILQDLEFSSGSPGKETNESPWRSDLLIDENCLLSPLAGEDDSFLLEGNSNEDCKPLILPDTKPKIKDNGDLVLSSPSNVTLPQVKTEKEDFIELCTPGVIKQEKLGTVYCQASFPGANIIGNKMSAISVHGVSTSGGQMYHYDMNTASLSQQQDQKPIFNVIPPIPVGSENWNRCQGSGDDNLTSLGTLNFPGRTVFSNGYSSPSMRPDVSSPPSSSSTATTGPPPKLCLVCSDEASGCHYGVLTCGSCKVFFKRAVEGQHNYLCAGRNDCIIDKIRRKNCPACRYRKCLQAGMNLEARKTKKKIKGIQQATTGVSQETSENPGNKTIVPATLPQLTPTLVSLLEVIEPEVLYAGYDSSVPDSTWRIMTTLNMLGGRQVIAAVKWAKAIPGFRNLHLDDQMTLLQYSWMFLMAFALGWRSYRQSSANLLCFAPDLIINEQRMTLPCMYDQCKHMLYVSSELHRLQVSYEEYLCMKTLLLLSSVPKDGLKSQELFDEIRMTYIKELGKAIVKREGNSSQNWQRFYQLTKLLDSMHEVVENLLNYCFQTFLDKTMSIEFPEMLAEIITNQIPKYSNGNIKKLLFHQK
# Test: Ligand binding assay (GR BIND)
# How it was run: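 Displacement of tritiated dexamethasone (6 nM trace solution) from receptor in cell supernatant was measured after overnight incubation at 4 °C in molybdate-containing TEGM, pH 7.2, 2% ethanol. Hydroxylapatite pulled down the receptor–ligand complex for filter washing and scintillation counting, with dexamethasone as reference.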
row,Ki,SMILES
1,10.7 nM,"Cn1cnc(S(=O)(=O)N(CC#N)C[C@H]2CCC3=Cc4c(cnn4-c4ccc(F)cc4)C[C@@]32C)c1 [Example 37, N-(cyanomethyl)-N-{[(4αR,5S)-1-(4-fluorophenyl}-4α-methyl-1,4,4α,5,6,7-hexahydrocyclopenta[f]indazol-5-yl]methyl}-1-methyl-1H-imidazole-4-sulfonamide]"
2,6.4 nM,"C[C@]12Cc3cnn(-c4ccc(F)cc4)c3C=C1CC[C@@H]2CN(CC#N)S(=O)(=O)c1ccc(Oc2cccc(Cl)c2C#N)cc1 [Example 38, 4-(3-chloro-2-cyanophenoxy)-N-(cyanomethyl)-N-{[(4αR,5S)-1-(4-fluorophenyl)-4α-methyl-1,4,4α,5,6,7-hexahydrocyclopenta[f]indazol-5-yl]methyl}benzenesulfonamide]"
3,8.1 nM,"CN1CCOc2cc(S(=O)(=O)N(CC#N)C[C@H]3CCC4=Cc5c(cnn5-c5ccc(F)cc5)C[C@@]43C)ccc21 [Example 39, N-(cyanomethyl)-N-{[(4αR,5S)-1-(4-fluorophenyl)-4α-methyl-1,4,4α,5,6,7-hexahydrocyclopenta[f]indazol-5-yl]methyl}-4-methyl-3,4-dihydro-2H-1,4-benzoxazine-7-sulfonamide]"
4,10.5 nM,"C[C@]12Cc3cnn(-c4ccc(F)cc4)c3C=C1CC[C@@H]2CN(CC#N)S(=O)(=O)c1cccc2ccccc12 [Example 40, N-(cyanomethyl)-N-{[(4αR,5S)-1-(4-fluorophenyl)-4α-methyl-1,4,4α,5,6,7-hexahydrocyclopenta[f]indazol-5-yl]methyl}naphthalene-1-sulfonamide]"
5,5.9 nM,"C[C@]12Cc3cnn(-c4ccc(F)cc4)c3C=C1CC[C@@H]2CN(CC#N)S(=O)(=O)c1cc(OCC(F)(F)F)ccc1OCC(F)(F)F [Example 41, N-(cyanomethyl)-N-{[(4αR,5S)-1-(4-fluorophenyl)-4α-methyl-1,4,4α,5,6,7-hexahydrocyclopenta[f]indazol-5-yl]methyl}-2,5-bis(2,2,2-trifluoroethoxy)benzenesulfonamide]"
6,5.9 nM,"C[C@]12Cc3cnn(-c4ccc(F)cc4)c3C=C1CC[C@@H]2CN(CC#N)S(=O)(=O)c1ccc(-c2ccccc2)cc1 [Example 42, N-(cyanomethyl)-N-{[(4αR,5S)-1-(4-fluorophenyl)-4α-methyl-1,4,4α,5,6,7-hexahydrocyclopenta[f]indazol-5-yl]methyl}biphenyl-4-sulfonamide]"
7,2.2 nM,"C[C@]12Cc3cnn(-c4ccc(F)cc4)c3C=C1CC[C@@H]2CN(CC#N)S(=O)(=O)c1ccccc1F [Example 43, N-(cyanomethyl)-2-fluoro-N-{[(4αR,5S)-1-(4-fluorophenyl)-4α-methyl-1,4,4α,5,6,7-hexahydrocyclopenta[f]indazol-5-yl]methyl}benzenesulfonamide]"
8,1.6 nM,"C[C@]12Cc3cnn(-c4ccc(F)cc4)c3C=C1CC[C@@H]2CN(CC#N)S(=O)(=O)c1cc(F)cc(F)c1 [Example 44, N-(cyanomethyl)-3,5-difluoro-N-{[(4αR,5S)-1-(4-fluorophenyl)-4α-methyl-1,4,4α,5,6,7-hexahydrocyclopenta[f]indazol-5-yl]methyl}benzenesulfonamide]"
9,2.4 nM,"C[C@]12Cc3cnn(-c4ccc(F)cc4)c3C=C1CC[C@@H]2CN(CC#N)S(=O)(=O)c1ccc(Oc2ccccn2)cc1 [Example 45, N-(cyanomethyl)-N-{[(4αR,5S)-1-(4-fluorophenyl)-4α-methyl-1,4,4α,5,6,7-hexahydrocyclopenta[f]indazol-5-yl]methyl}-4-(pyridin-2-yloxy)benzenesulfonamide]"
10,0.7 nM,"C[C@]12Cc3cnn(-c4ccc(F)cc4)c3C=C1CC[C@@H]2CN(CC#N)S(=O)(=O)c1ccc(F)cc1 [Example 46, N-(cyanomethyl)-4-fluoro-N-{[(4αR,5S)-1-(4-fluorophenyl)-4α-methyl-1,4,4α,5,6,7-hexahydrocyclopenta[f]indazol-5-yl]methyl}benzenesulfonamide]"
11,0.7 nM,"C[C@]12Cc3cnn(-c4ccc(F)cc4)c3C=C1CC[C@@H]2CN(CC#N)S(=O)(=O)c1cc(F)c(F)cc1F [Example 47, N-(cyanomethyl)-2,4,5-trifluoro-N-{[(4αR,5S)-1-(4-fluorophenyl)-4α-methyl-1,4,4α,5,6,7-hexahydrocyclopenta[f]indazol-5-yl]methyl}benzenesulfonamide]"
12,0.9 nM,"C[C@]12Cc3cnn(-c4ccc(F)cc4)c3C=C1CC[C@@H]2CN(CC#N)S(=O)(=O)Cc1ccccc1 [Example 48, N-(cyanomethyl)-N-{[(4αR,5S)-1-(4-fluorophenyl)-4α-methyl-1,4,4α,5,6,7-hexahydrocyclopenta[f]indazol-5-yl]methyl}-1-phenylmethanesulfonamide]"
13,1.8 nM,"Cc1ccccc1S(=O)(=O)N(CC#N)C[C@H]1CCC2=Cc3c(cnn3-c3ccc(F)cc3)C[C@@]21C [Example 49, N-(cyanomethyl)-N-{[(4αR,5S)-1-(4-fluorophenyl)-4α-methyl-1,4,4α,5,6,7-hexahydrocyclopenta[f]indazol-5-yl]methyl}-2-methylbenzenesulfonamide]"
14,6.5 nM,"C[C@]12Cc3cnn(-c4ccc(F)cc4)c3C=C1CC[C@@H]2CN(CC#N)S(=O)(=O)c1ccccc1Cl [Example 50, 2-chloro-N-(cyanomethyl)-N-{[(4αR,5S)-1-(4-fluorophenyl)-4α-methyl-1,4,4α,5,6,7-hexahydrocyclopenta[f]indazol-5-yl]methyl}benzenesulfonamide]"
15,2.5 nM,"C[C@]12Cc3cnn(-c4ccc(F)cc4)c3C=C1CC[C@@H]2CN(CC#N)S(=O)(=O)c1ccc(F)cc1F [Example 51, N-(cyanomethyl)-2,4-difluoro-N-{[(4αR,5S)-1-(4-fluorophenyl)-4α-methyl-1,4,4α,5,6,7-hexahydrocyclopenta[f]indazol-5-yl]methyl}benzenesulfonamide]"
16,1.9 nM,"Cc1nn(C)c(Cl)c1S(=O)(=O)N(CC#N)C[C@H]1CCC2=Cc3c(cnn3-c3ccc(F)cc3)C[C@@]21C [Example 52, 5-chloro-N-(cyanomethyl)-N-{[(4αR,5S)-1-(4-fluorophenyl)-4α-methyl-1,4,4α,5,6,7-hexahydrocyclopenta[f]indazol-5-yl]methyl}-1,3-dimethyl-1H-pyrazole-4-sulfonamide]"
17,3.7 nM,"C[C@]12Cc3cnn(-c4ccc(F)cc4)c3C=C1CC[C@@H]2CN(CC#N)S(=O)(=O)c1ccccc1-c1ccccc1 [Example 53, N-(cyanomethyl)-N-{[(4αR,5S)-1-(4-fluorophenyl)-4α-methyl-1,4,4α,5,6,7-hexahydrocyclopenta[f]indazol-5-yl]methyl}biphenyl-2-sulfonamide]"
18,8.5 nM,"C[C@]12Cc3cnn(-c4ccc(F)cc4)c3C=C1CC[C@@H]2CN(CC#N)S(=O)(=O)c1ccccc1C(F)(F)F [Example 54, N-(cyanomethyl)-N-{[(4αR,5S)-1-(4-fluorophenyl)-4α-methyl-1,4,4α,5,6,7-hexahydrocyclopenta[f]indazol-5-yl]methyl}-2-(trifluoromethyl)benzenesulfonamide]"
19,2.7 nM,C[C@]12Cc3cnn(-c4ccc(F)cc4)c3C=C1CC[C@@H]2CN(CC#N)S(=O)(=O)c1ccccc1C#N [Example 55]
20,4.6 nM,"Cc1oncc1S(=O)(=O)N(CCO)C[C@H]1CCC2=Cc3c(cnn3-c3ccc(F)cc3)C[C@@]21C [Example 56, N-{[(4αR,5S)-1-(4-fluorophenyl)-4α-methyl-1,4,4α,5,6,7-hexahydrocyclopenta[f]indazol-5-yl]methyl}-N-(2-hydroxyethyl)-5-methylisoxazole-4-sulfonamide]"
21,2.3 nM,"C[C@]12Cc3cnn(-c4ccc(F)cc4)c3C=C1CC[C@@H]2CN(CCO)S(=O)(=O)c1cc(Cl)c(Cl)s1 [Example 58, 4,5-dichloro-N-{[(4αR,5S)-1-(4-fluorophenyl)-4α-methyl-1,4,4α,5,6,7-hexahydrocyclopenta[f]indazol-5-yl]methyl}-N-(2-hydroxyethyl)thiophene-2-sulfonamide]"
22,2.6 nM,C[C@]12Cc3cnn(-c4ccc(F)cc4)c3C=C1CC[C@@H]2CN(CCO)S(=O)(=O)c1ccc(F)c(F)c1 [Example 59]
23,4.4 nM,"C[C@]12Cc3cnn(-c4ccc(F)cc4)c3C=C1CC[C@@H]2CN(CCO)S(=O)(=O)c1ccc(C#N)cc1Cl [Example 60, 2-chloro-4-cyano-N-{[(4αR,5S)-1-(4-fluorophenyl)-4α-methyl-1,4,4α,5,6,7-hexahydrocyclopenta[f]indazol-5-yl]methyl}-N-(2-hydroxyethyl)benezenesulfonamide]"
24,2.5 nM,"C[C@]12Cc3cnn(-c4ccc(F)cc4)c3C=C1CC[C@@H]2CN(CCO)S(=O)(=O)c1cccc(Cl)c1Cl [Example 61, 2,3-dichloro-N-{[(4αR,5S)-1-(4-fluorophenyl)-4α-methyl-1,4,4α,5,6,7-hexahydrocyclopenta[f]indazol-5-yl]methyl}-N-(2-hydroxyethyl)benezenesulfonamide]"

# Reference: patent US8299048B2, “Hexahydrocyclopentyl[f]indazole sulfonamides and derivatives thereof as selective glucocorticoid receptor modulators” (Merck Sharp & Dohme Corp., priority 2008, dated 2012)
